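Interpolation was linear, between the two tested concentrations surrounding the appropriate level; five concentrations were tested over 48 hours in 96-well plates. Abbreviation: GI50, concentration required for 50% inhibition of growth. At the TGI there is no net growth.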
Legend:
Test in all cases: NCI-60 cell line screen, 48 h
786-0 renal = test system: 786-0 renal
A498 renal = test system: A498 renal
ACHN renal = test system: ACHN renal
BT-549 breast = test system: BT-549 breast
CAKI-1 renal = test system: CAKI-1 renal
CCRF-CEM leukemia = test system: CCRF-CEM leukemia
COLO 205 colon = test system: COLO 205 colon
DU-145 prostate = test system: DU-145 prostate
EKVX NSCLC = test system: EKVX NSCLC
HCC-2998 colon = test system: HCC-2998 colon
HCT-116 colon = test system: HCT-116 colon
HCT-15 colon = test system: HCT-15 colon
HL-60(TB) leukemia = test system: HL-60(TB) leukemia
HOP-62 NSCLC = test system: HOP-62 NSCLC
HOP-92 NSCLC = test system: HOP-92 NSCLC
HS 578T breast = test system: HS 578T breast
HT29 colon = test system: HT29 colon
IGROV1 ovarian = test system: IGROV1 ovarian
K-562 leukemia = test system: K-562 leukemia
LOX IMVI melanoma = test system: LOX IMVI melanoma
M14 melanoma = test system: M14 melanoma
MALME-3M melanoma = test system: MALME-3M melanoma
MDA-MB-231 breast = test system: MDA-MB-231 breast
MDA-MB-435 = test system: MDA-MB-435
MOLT-4 leukemia = test system: MOLT-4 leukemia
NCI-H226 lung = test system: NCI-H226 lung
NCI-H23 lung = test system: NCI-H23 lung
NCI/ADR-RES ovarian = test system: NCI/ADR-RES ovarian
OVCAR-3 ovarian = test system: OVCAR-3 ovarian
OVCAR-5 ovarian = test system: OVCAR-5 ovarian
OVCAR-8 ovarian = test system: OVCAR-8 ovarian
PC-3 prostate = test system: PC-3 prostate
RPMI-8226 leukemia = test system: RPMI-8226 leukemia
RXF 393 renal = test system: RXF 393 renal
SF-268 CNS = test system: SF-268 CNS
SF-295 CNS = test system: SF-295 CNS
SF-539 CNS = test system: SF-539 CNS
SK-MEL-2 melanoma = test system: SK-MEL-2 melanoma
SK-MEL-28 melanoma = test system: SK-MEL-28 melanoma
SK-MEL-5 melanoma = test system: SK-MEL-5 melanoma
SK-OV-3 ovarian = test system: SK-OV-3 ovarian
SN12C renal = test system: SN12C renal
SNB-19 CNS = test system: SNB-19 CNS
SNB-75 CNS = test system: SNB-75 CNS
SR leukemia = test system: SR leukemia
SW-620 colon = test system: SW-620 colon
T-47D breast = test system: T-47D breast
TK-10 renal = test system: TK-10 renal
U251 CNS = test system: U251 CNS
UACC-257 melanoma = test system: UACC-257 melanoma
UACC-62 melanoma = test system: UACC-62 melanoma
UO-31 renal = test system: UO-31 renal

In the case of `Nc1nc(-c2cccc([N+](=O)[O-])c2)c(N=Nc2cccc([N+](=O)[O-])c2)s1`, the GI50 (786-0 renal) is reported as 63 µM, the TGI (786-0 renal) is reported as > 100 µM and the GI50 (A498 renal) is reported as 33.1 µM. For the same molecule, the TGI (A498 renal) was > 100 µM, the GI50 (ACHN renal) was > 100 µM and the TGI (ACHN renal) was > 100 µM. The GI50 (BT-549 breast) was 10.4 µM, the TGI (BT-549 breast) was > 100 µM and the GI50 (CAKI-1 renal) was > 100 µM. For the same molecule, the TGI (CAKI-1 renal) was > 100 µM, the GI50 (CCRF-CEM leukemia) was 39.7 µM and the TGI (CCRF-CEM leukemia) was > 100 µM. For the same molecule, the GI50 (COLO 205 colon) was > 100 µM, the TGI (COLO 205 colon) was > 100 µM and the GI50 (DU-145 prostate) was > 100 µM. For the same molecule, the TGI (DU-145 prostate) was > 100 µM, the GI50 (EKVX NSCLC) was > 78.5 µM and the TGI (EKVX NSCLC) was > 100 µM. For the same molecule, the GI50 (HCC-2998 colon) was > 100 µM, the TGI (HCC-2998 colon) was > 100 µM and the GI50 (HCT-116 colon) was > 100 µM. The TGI (HCT-116 colon) was > 100 µM, the GI50 (HCT-15 colon) was > 100 µM and the TGI (HCT-15 colon) was > 100 µM. The GI50 (HL-60(TB) leukemia) was > 52.6 µM, the TGI (HL-60(TB) leukemia) was > 92.8 µM and the GI50 (HOP-62 NSCLC) was 64.9 µM. The TGI (HOP-62 NSCLC) was > 100 µM, the GI50 (HOP-92 NSCLC) was 3.79 µM and the TGI (HOP-92 NSCLC) was > 100 µM. The GI50 (HS 578T breast) was > 100 µM, the TGI (HS 578T breast) was > 100 µM and the GI50 (HT29 colon) was > 100 µM. The TGI (HT29 colon) was > 100 µM, the GI50 (IGROV1 ovarian) was > 100 µM and the TGI (IGROV1 ovarian) was > 100 µM. For the same molecule, the GI50 (K-562 leukemia) was 1.39 µM, the TGI (K-562 leukemia) was > 65 µM and the GI50 (LOX IMVI melanoma) was > 100 µM. The TGI (LOX IMVI melanoma) was > 100 µM, the GI50 (M14 melanoma) was > 100 µM and the TGI (M14 melanoma) was > 100 µM. For the same molecule, the GI50 (MALME-3M melanoma) was > 100 µM, the TGI (MALME-3M melanoma) was > 100 µM and the GI50 (MDA-MB-231 breast) was 13.6 µM. The TGI (MDA-MB-231 breast) was > 100 µM, the GI50 (MDA-MB-435) was > 100 µM and the TGI (MDA-MB-435) was > 100 µM. For the same molecule, the GI50 (MOLT-4 leukemia) was > 25.3 µM, the TGI (MOLT-4 leukemia) was > 100 µM and the GI50 (NCI-H226 lung) was > 100 µM. The TGI (NCI-H226 lung) was > 100 µM, the GI50 (NCI-H23 lung) was > 100 µM and the TGI (NCI-H23 lung) was > 100 µM. The GI50 (NCI/ADR-RES ovarian) was > 100 µM, the TGI (NCI/ADR-RES ovarian) was > 100 µM and the GI50 (OVCAR-3 ovarian) was > 100 µM. The TGI (OVCAR-3 ovarian) was > 100 µM, the GI50 (OVCAR-5 ovarian) was > 100 µM and the TGI (OVCAR-5 ovarian) was > 100 µM. The GI50 (OVCAR-8 ovarian) was > 100 µM, the TGI (OVCAR-8 ovarian) was > 100 µM and the GI50 (PC-3 prostate) was > 27.2 µM. The TGI (PC-3 prostate) was > 100 µM, the GI50 (RPMI-8226 leukemia) was > 100 µM and the TGI (RPMI-8226 leukemia) was > 100 µM. For the same molecule, the GI50 (RXF 393 renal) was > 100 µM, the TGI (RXF 393 renal) was > 100 µM and the GI50 (SF-268 CNS) was > 100 µM. The TGI (SF-268 CNS) was > 100 µM, the GI50 (SF-295 CNS) was > 100 µM and the TGI (SF-295 CNS) was > 100 µM. For the same molecule, the GI50 (SF-539 CNS) was > 100 µM, the TGI (SF-539 CNS) was > 100 µM and the GI50 (SK-MEL-2 melanoma) was > 92.8 µM. For the same molecule, the TGI (SK-MEL-2 melanoma) was > 100 µM, the GI50 (SK-MEL-28 melanoma) was > 100 µM and the TGI (SK-MEL-28 melanoma) was > 100 µM. For the same molecule, the GI50 (SK-MEL-5 melanoma) was 56.9 µM, the TGI (SK-MEL-5 melanoma) was > 100 µM and the GI50 (SK-OV-3 ovarian) was > 100 µM. For the same molecule, the TGI (SK-OV-3 ovarian) was > 100 µM, the GI50 (SN12C renal) was > 100 µM and the TGI (SN12C renal) was > 100 µM. The GI50 (SNB-19 CNS) was 57.9 µM, the TGI (SNB-19 CNS) was > 100 µM and the GI50 (SNB-75 CNS) was 53 µM. For the same molecule, the TGI (SNB-75 CNS) was > 100 µM, the GI50 (SR leukemia) was 19.2 µM and the TGI (SR leukemia) was > 57.3 µM. For the same molecule, the GI50 (SW-620 colon) was > 100 µM, the TGI (SW-620 colon) was > 100 µM and the GI50 (T-47D breast) was > 100 µM. The TGI (T-47D breast) was > 100 µM, the GI50 (TK-10 renal) was 46.5 µM and the TGI (TK-10 renal) was > 100 µM. For the same molecule, the GI50 (U251 CNS) was 4.29 µM, the TGI (U251 CNS) was > 100 µM and the GI50 (UACC-257 melanoma) was > 100 µM. For the same molecule, the TGI (UACC-257 melanoma) was > 100 µM, the GI50 (UACC-62 melanoma) was > 100 µM and the TGI (UACC-62 melanoma) was > 100 µM. The GI50 (UO-31 renal) was > 100 µM and the TGI (UO-31 renal) was > 100 µM.
